The target of the first assay is T1, Recombinant human HSD17B13 enzyme (Homo sapiens, UniProt Q7Z5P4).
T1 sequence (Q7Z5P4 20-300): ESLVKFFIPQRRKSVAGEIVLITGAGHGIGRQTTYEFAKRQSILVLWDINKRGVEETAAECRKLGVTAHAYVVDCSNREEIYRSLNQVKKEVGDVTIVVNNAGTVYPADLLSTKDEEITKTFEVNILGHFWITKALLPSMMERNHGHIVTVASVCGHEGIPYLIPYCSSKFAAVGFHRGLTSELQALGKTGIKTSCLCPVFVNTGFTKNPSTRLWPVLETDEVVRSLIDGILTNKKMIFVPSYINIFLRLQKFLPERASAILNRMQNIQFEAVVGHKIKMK
Description: HSD17b13 NAD(P)H-Glo biochemical assay. Particulars: 50 uM estradiol, 1 mM NAD+, NAD(P)H-Glo luminescence; read-out: HSD17β13 IC50. The method, boiled down: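 Luminescent NAD(P)H-Glo read-out, taken after 1 hour at RT, measured cofactor reduction. Substrate and cofactor were estradiol at 50 uM and NAD+ at 1 mM final, reacted with the recombinant human enzyme for 3 hours at 37° C in 20 mM Tris pH7.4, 0.002% Tween-20, 0.02% BSA. Compound was pre-incubated with enzyme for 20 minutes at RT.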
As usually defined, the IC50 is the concentration that gives 50% inhibition. In the case of `Cn1nc(-c2cc(C(F)(F)F)c(F)c(O)c2F)c2cnc(N3CC4(CCOCC4)C3)cc21` [Compound 9.10, 2,6-Difluoro-3-(1-methyl-6-(7-oxa-2-azaspiro[3.5]nonan-2-yl)-1H-pyrazolo[4,3-c]pyridin-3-yl)-5-(trifluoromethyl)phenol], the IC50 was below 100 nM. The same measure, in the same setting: with `COCC1(N(C)c2ncc3c(-c4cc(C(F)(F)F)c(F)c(O)c4F)nn(C)c3n2)CCC1` [Compound 18.20, 2,6-Difluoro-3-(6-((1-(methoxymethyl)cyclobutyl)(methy 1)amino)-1-methy1-1H-pyrazolo[3,4-d]pyrimidin-3-y1)-5-(trifluoromethyl)phenol] the figure was below 100 nM; with `CN(c1cc(Cl)c2c(-c3cc(C(F)(F)F)c(F)c(O)c3F)nn(C)c2c1)C1CCOCC1` [Compound 9.127, 3-(4-Chloro-1-methyl-6-(methyl(tetrahydro-2H-pyran-4-yl)amino)-1H-indazol-3-yl)-2,6-difluoro-5-(trifluoromethyl)phenol], 100 to 1000 nM. In the case of `COCC1CN(c2cc3c(cn2)c(-c2cc(C(F)(F)F)c(F)c(O)c2F)nn3C)CCO1` (stereo not shown) [Compound 9.77, 2,6-Difluoro-3-(6-(2-(methoxymethyl)morpholino)-1-methyl-1H-pyrazolo[4,3-c]pyridin-3-yl)-5-(trifluoromethyl)phenol], the IC50 is below 100 nM. Consider `Cn1nc(-c2cc(C(F)(F)F)c(F)c(O)c2F)c2cnc(N3CCCC(c4ncccn4)C3)nc21` (stereo not shown) [Compound 18.76, 2,6-Difluoro-3-(1-methyl-6-(3-(pyrimidin-2-y1)piperidin-1-yl)-1H-pyrazolo[3,4-d]pyrimidin-3-y1)-5-(trifluoromethyl)phenol], for which the IC50 is below 100 nM. As to `CN(CC1CC1)c1cc2c(cn1)c(-c1cc(C(F)(F)F)c(F)c(O)c1F)nn2C` [Compound 9.11, 3-(6-((Cyclopropylmethyl) (methyl)amino)-1-methyl-1H-pyrazolo[4,3-c]pyridin-3-yl)-2,6-difluoro-5-(trifluoromethyl)phenol], the IC50 was below 100 nM. The same measure, in the same setting: with `COC12CC(CN(c3cc4c(cn3)c(-c3cc(C(F)(F)F)c(F)c(O)c3F)nn4C)C1)C2` [Compound 9.93, 2,6-Difluoro-3-(6-(1-methoxy-3-azabicyclo[3.1.1]heptan-3-yl)-1-methyl-1H-pyrazolo[4,3-c]pyridin-3-yl)-5-(trifluoromethyl)phenol] the figure was below 100 nM; with `Cn1nc(-c2cc(C(F)(F)F)c(F)c(O)c2F)c2cnc(N3CCOC(C)(C)C3)nc21` [Compound 18.103, 3-(6-(2,2-Dimethylmorpholino)-1-methyl-1H-pyrazolo[3,4-d]pyrimidin-3-y1)-2,6-difluoro-5-(trifluoromethyl)phenol], below 100 nM; with `Oc1cc(-c2n[nH]c3cc(-c4ccc(O)c(Cl)c4)ccc23)ccc1F` [Compound 16, 2-Chloro-4-(3-(4-fluoro-3-hydroxyphenyl)-1H-indazol-6-yl)phenol], 100 to 1000 nM. Still for that read-out and setting: next, `COCC1(N(C)c2cc3c(cn2)c(-c2cc(C(F)(F)F)c(F)c(O)c2F)nn3C)CCC1` [Compound 9.21, 2,6-Difluoro-3-(6-((1-(methoxymethyl)cyclobutyl)(methyl)amino)-1-methyl-1H-pyrazolo[4,3-c]pyridin-3-yl)-5-(trifluoromethyl)phenol]: below 100 nM.

Take `Cn1nc(-c2cc(C(F)(F)F)c(F)c(O)c2F)c2cnc(N(Cc3ccccc3)C3CCOCC3)nc21` [Compound 19.02, 3-(6-(Benzyl(tetrahydro-2H-pyran-4-yl)amino)-1-methyl-1H-pyrazolo[3,4-d]pyrimidin-3-y1)-2,6-difluoro-5-(trifluoromethyl)phenol]: the IC50 is below 100 nM. Take `Cn1nc(-c2cc(C(F)(F)F)c(F)c(O)c2F)c2cnc(N3CCC4(CCOCC4)CC3)nc21` [Compound 18.36, 2,6-Difluoro-3-(1-methyl-6-(3-oxa-9-azaspiro[5.5]undecan-9-yl)-1H-pyrazolo[3,4-d]pyrimidin-3-y1)-5-(trifluoromethyl)phenol]: the IC50 was below 100 nM.

Turning to `CCOC1(C)CCN(c2ncc3c(-c4cc(C(F)(F)F)c(F)c(O)c4F)nn(C)c3n2)CC1` [Compound 18.68, 3-(6-(4-Ethoxy-4-methylpiperidin-1-y1)-1-methyl-1H-pyrazolo[3,4-d]pyrimidin-3-y1)-2,6-difluoro-5-(trifluoromethyl)phenol], the IC50 is below 100 nM. Still for that read-out and setting: next, `Cn1nc(-c2cc(C(F)(F)F)c(F)c(O)c2F)c2cnc(N3CCC(c4ccccc4)CC3)nc21` [Compound 18.44, 2,6-Difluoro-3-(1-methyl-6-(4-phenylpiperidin-1-y1)-1H-pyrazolo[3,4-d]pyrimidin-3-y1)-5-(trifluoromethyl)phenol]: below 100 nM; `Cn1nc(-c2cc(C(F)(F)F)c(F)c(O)c2F)c2cnc(N3CCN(C(=O)Nc4ccccc4)C4(CC4)C3)cc21` [Compound 21.08, 7-(3-(2,4-Difluoro-3-hydroxy-5-(trifluoromethyl)phenyl)-1-methyl-1H-pyrazolo[4,3-c]pyridin-6-y1)-N-phenyl-4,7-diazaspiro[2.5]octane-4-carboxamide]: below 100 nM; `Cn1nc(-c2cc(C(F)(F)F)c(F)c(O)c2F)c2cnc(N3CCC(NS(C)(=O)=O)CC3)nc21` [Compound 18.23, N-(1-(3-(2,4-Difluoro-3-hydroxy-5-(trifluoromethyl)phenyl)-1-methyl-1H-pyrazolo[3,4-d]pyrimidin-6-yl)piperidin-4-yl)methanesulfonamide]: below 100 nM.

Regarding `Cn1nc(-c2cc(C(F)(F)F)c(F)c(O)c2F)c2cnc(N3CCOC(c4ncon4)C3)nc21` (stereo not shown) [Compound 18.81, 3-(6-(2-(1,2,4-Oxadiazol-3-yl)morpholino)-1-methyl-1H-pyrazolo[3,4-d]pyrimidin-3-y1)-2,6-difluoro-5-(trifluoromethyl)phenol], the IC50 was below 100 nM. On the same count and under the same terms, with `Cn1nc(-c2cc(C(F)(F)F)c(F)c(O)c2F)c2cnc(NC3CCC3)cc21` [Compound 9.14, 3-(6-(Cyclobutylamino)-1-methyl-1H-pyrazolo[4,3-c]pyridin-3-yl)-2,6-difluoro-5-(trifluoromethyl)phenol] the figure was below 100 nM. The same measure, in the same setting: with `Cn1nc(-c2cc(C(F)(F)F)c(F)c(O)c2F)c2cc(F)c(N3CCOC4(CCC4)C3)nc21` [Compound 9.108, 2,6-Difluoro-3-(5-fluoro-1-methyl-6-(5-oxa-8-azaspiro[3.5]nonan-8-yl)-1H-pyrazolo[3,4-b]pyridin-3-yl)-5-(trifluoromethyl)phenol] the figure was below 100 nM. On to `Cn1nc(-c2cc(C(F)(F)F)c(F)c(O)c2F)c2cnc(N3CCOCC34CC4)nc21` [Compound 12.03, 2,6-Difluoro-3-(1-methyl-6-(7-oxa-4-azaspiro[2.5]octan-4-yl)-1H-pyrazolo[3,4-d]pyrimidin-3-yl)-5-(trifluoromethyl)phenol], for which the IC50 was below 100 nM. For the molecule `CC(=O)N1CCC(N(C)c2cc3c(cn2)c(-c2cc(C(F)(F)F)c(F)c(O)c2F)nn3C)CC1` [Compound 9.66, 1-(4-((3-(2,4-Difluoro-3-hydroxy-5-(trifluoromethyl)phenyl)-1-methyl-1H-pyrazolo[4,3-c]pyridin-6-yl)(methyl)amino)piperidin-1-yl)ethanone], the IC50 was below 100 nM. On the same count and under the same terms, with `C[C@@H]1CN(c2cc3c(cn2)c(-c2cc(C(F)(F)F)c(F)c(O)c2F)nn3C)CCN1C(=O)Nc1ccccc1` [Compound 21.07, (R)-4-(3-(2,4-Difluoro-3-hydroxy-5-(trifluoromethyl)phenyl)-1-methyl-1H-pyrazolo[4,3-c]pyridin-6-y1)-2-methyl-N-phenylpiperazine-1-carboxamide] the figure was below 100 nM; with `CC1(C#N)CN(c2ncc3c(-c4cc(O)c(F)c(C(F)(F)F)c4)n[nH]c3n2)C1` [Compound 10.02, 1-(3-(4-Fluoro-3-hydroxy-5-(trifluoromethyl)phenyl)-1H-pyrazolo[3,4-d]pyrimidin-6-yl)-3-methylazetidine-3-carbonitrile], below 100 nM. Same read-out and setting: next, `C[C@H]1CN(c2cc3c(cn2)c(-c2cc(C(F)(F)F)c(F)c(O)c2F)nn3C)CCN1C(=O)Nc1ccccc1` [Compound 21.06, (S)-4-(3-(2,4-Difluoro-3-hydroxy-5-(trifluoromethyl)phenyl)-1-methyl-1H-pyrazolo[4,3-c]pyridin-6-y1)-2-methyl-N-phenylpiperazine-1-carboxamide]: below 100 nM.

`CS(=O)(=O)N1CCN(c2ccc3c(-c4cc(O)c(F)c(C(F)(F)F)c4)n[nH]c3n2)CC1` [Compound 10.03, 2-Fluoro-5-(6-(4-(methylsulfonyl)piperazin-1-yl)-1H-pyrazolo[3,4-b]pyridin-3-yl)-3-(trifluoromethyl)phenol]: the IC50 was in the range of 100 to 1000 nM.

Still in this assay, the particulars now being: at 10 uM compound; read-out: HSD17β13 % inhibition at 10 uM.
The term inhibition denotes the share of the control response that was lost under treatment. For `Cn1nc(-c2cc(C(F)(F)F)c(F)c(O)c2F)c2ccc(NC3COC3)nc21` [Compound 9.139, 2,6-Difluoro-3-(1-methyl-6-(oxetan-3-ylamino)-1H-pyrazolo[3,4-b]pyridin-3-yl)-5-(trifluoromethyl)phenol], the inhibition at 10 µM came out at 25%.

Take `CS(=O)(=O)N1CCN(c2ccc3c(-c4cc(O)cc(C(F)(F)F)c4F)n[nH]c3c2)CC1` [Compound 9.22, 4-Fluoro-3-(6-(4-(methylsulfonyl)piperazin-1-yl)-1H-indazol-3-yl)-5-(trifluoromethyl)phenol]: the inhibition at 10 µM worked out at 36%.

Still in this assay, the particulars now being: at 30 uM compound; read-out: HSD17β13 % inhibition at 30 uM.
With `Cc1cc(-c2nc3cc(C(=O)NC4CCC4)ccc3o2)cc(O)c1F` [Compound 2.02, N-Cyclobutyl-2-(4-fluoro-3-hydroxy-5-methylphenyl)benzo[d]oxazole-5-carboxamide], the inhibition at 30 µM is 20%.

Values taken from patent US20240083861A1, “HSD17B13 INHIBITORS AND USES THEREOF” (FL2022-001, Inc., priority 2020, published 2024).
